Test results published in patent US5665882A, “Pyridyl ethylation of lactams” (Merck & Co., Inc., priority 1996, dated 1997).
pIC50: −log10 of the molar value.

Tested on: ADP-stimulated platelets
Experiment: ADP-stimulated platelet aggregation assay (gel-filtered human platelets)
Format: cell-based
Conditions: inhibition of ADP-stimulated platelet aggregation by 50% relative to control; gel-filtered human platelets 2×10^8 per ml, fibrinogen 100 ug/ml, Ca^2+ 1 mM, 10 mM ADP, 37° C.
Excerpt: The activity of these fibrinogen receptor antagonists is illustrated below. One test used to evaluate fibrinogen receptor antagonist activity is based on evaluation of inhibition of ADP-stimulated platelets. Aggregation requires that fibrinogen bind to and occupy the platelet fibrinogen receptor site. Inhibitors of fibrinogen binding inhibit aggregation. In the ADP-stimulated platelet aggregation assay used to determine inhibition associated with these fibrinogen receptor antagonists, human platelets are isolated from fresh blood, collected into acid citrate/dextrose by differential centrifugation followed by gel filtration on Sepharose 2B in divalent ion-free Tyrode's buffer (pH 7.4) containing 2% bovine serum albumin.
Platelet aggregation is measured at 37° C. in a Chronolog aggregometer. The reaction mixture contains gel-filtered human platelets (2×10^8 per ml), fibrinogen (100 micrograms per ml (ug/ml)), Ca^2+ (1 mM), and the fibrinogen receptor antagonists tested. The aggregation is initiated by adding 10 mM ADP 1 minute after the other components are added. The reaction is then allowed to proceed for at least 2 minutes. The extent of inhibition of aggregation is expressed as the percentage of the rate of aggregation observed in the absence of inhibitor. The IC50 is the dose of a particular compound inhibiting aggregation by 50% relative to a control lacking the compound. […]

C[C@H](CC(=O)O)NC(=O)CN1CCC[C@@H](CCC2CCNCC2)C1=O
pIC50: 4.00
